Experiments:
Assay in all cases: NCI-60 single-dose screen
MDA-MB-435 = format: cell-based; conditions: Homo sapiens; MDA-MB-435, 10^–5 M; read-out: GI (%)
Source text: (§1) In the next step, all synthesized compounds were electronically submitted and accepted for testing to the National Cancer Institute (NCI) platform, for the single dose (10^−5 M) screening against a panel of 60 human tumor cell lines, representing leukemia, melanoma, and cancers of the lung, colon, central nervous system, ovary, kidney, prostate, and breast. The results are summarized in Table 2, with the best values highlighted in red (Figures S1–S14).

786-0 = format: cell-based; conditions: Homo sapiens; 786-0, 10^–5 M; read-out: GI (%)
Source text: as §1

A498 = format: cell-based; conditions: Homo sapiens; A498, 10^–5 M; read-out: GI (%)
Source text: as §1

LOX IMVI = format: cell-based; conditions: Homo sapiens, 10^–5 M, read-out: GI (%)
Source text: as §1

MCF7 = format: cell-based; conditions: Homo sapiens; MCF7, 10^–5 M; read-out: GI (%)
Source text: as §1

HCC-2998 = format: cell-based; conditions: Homo sapiens; HCC-2998, 10^–5 M; read-out: GI (%)
Source text: as §1

SF-539 = format: cell-based; conditions: Homo sapiens; SF-539, 10^–5 M; read-out: GI (%)
Source text: as §1

MDA-MB-231/ATCC = format: cell-based; conditions: Homo sapiens, 10^–5 M, read-out: GI (%)
Source text: as §1

SN12C = format: cell-based; conditions: Homo sapiens, 10^–5 M, read-out: GI (%)
Source text: as §1

HS 578T = format: cell-based; conditions: Homo sapiens, 10^–5 M, read-out: GI (%)
Source text: as §1

K-562 = format: cell-based; conditions: Homo sapiens, K562; K-562, 10^–5 M; read-out: GI (%)
Source text: as §1

CCRF-CEM = format: cell-based; conditions: Homo sapiens, 10^–5 M, read-out: GI (%)
Source text: as §1

NCI-H322M = format: cell-based; conditions: Homo sapiens, 10^–5 M, read-out: GI (%)
Source text: as §1

UACC-257 = format: cell-based; conditions: Homo sapiens; UACC-257, 10^–5 M; read-out: GI (%)
Source text: as §1

A549/ATCC = format: cell-based; conditions: Homo sapiens, 10^–5 M, read-out: GI (%)
Source text: as §1

SK-OV-3 = format: cell-based; conditions: Homo sapiens; SK-OV-3, 10^–5 M; read-out: GI (%)
Source text: as §1

SNB-75 = format: cell-based; conditions: Homo sapiens; SNB-75, 10^–5 M; read-out: GI (%)
Source text: as §1

CAKI-1 = format: cell-based; conditions: Homo sapiens; CAKI-1, 10^–5 M; read-out: GI (%)
Source text: as §1

NCI-H23 = format: cell-based; conditions: Homo sapiens; NCI-H23, 10^–5 M; read-out: GI (%)
Source text: as §1

DU-145 = format: cell-based; conditions: Homo sapiens; DU-145, 10^–5 M; read-out: GI (%)
Source text: as §1

OVCAR-4 = format: cell-based; conditions: Homo sapiens; OVCAR-4, 10^–5 M; read-out: GI (%)
Source text: as §1

T-47D = format: cell-based; conditions: Homo sapiens, T47D, 10^–5 M, read-out: GI (%)
Source text: as §1

HCT-15 = format: cell-based; conditions: Homo sapiens; HCT-15, 10^–5 M; read-out: GI (%)
Source text: as §1

HCT-116 = format: cell-based; conditions: Homo sapiens; HCT-116, 10^–5 M; read-out: GI (%)
Source text: as §1

SNB-19 = format: cell-based; conditions: Homo sapiens; SNB-19, 10^–5 M; read-out: GI (%)
Source text: as §1

OVCAR-5 = format: cell-based; conditions: Homo sapiens; OVCAR-5, 10^–5 M; read-out: GI (%)
Source text: as §1

SK-MEL-2 = format: cell-based; conditions: Homo sapiens; SK-MEL-2, 10^–5 M; read-out: GI (%)
Source text: as §1

M14 = format: cell-based; conditions: Homo sapiens; M14, 10^–5 M; read-out: GI (%)
Source text: as §1

SW-620 = format: cell-based; conditions: Homo sapiens; SW-620, 10^–5 M; read-out: GI (%)
Source text: as §1

RPMI-8226 = format: cell-based; conditions: Homo sapiens; RPMI-8226, 10^–5 M; read-out: GI (%)
Source text: as §1

NCI-H522 = format: cell-based; conditions: Homo sapiens; NCI-H522, 10^–5 M; read-out: GI (%)
Source text: as §1

IGROV1 = format: cell-based; conditions: Homo sapiens, IGROV-1; IGROV1, 10^–5 M; read-out: GI (%)
Source text: as §1

HL-60(TB) = format: cell-based; conditions: Homo sapiens, 10^–5 M, read-out: GI (%)
Source text: as §1

SK-MEL-28 = format: cell-based; conditions: Homo sapiens; SK-MEL-28, 10^–5 M; read-out: GI (%)
Source text: as §1

MOLT-4 = format: cell-based; conditions: Homo sapiens; MOLT-4, 10^–5 M; read-out: GI (%)
Source text: as §1

UACC-62 = format: cell-based; conditions: Homo sapiens; UACC-62, 10^–5 M; read-out: GI (%)
Source text: as §1

NCI-H226 = format: cell-based, human; conditions: Homo sapiens; NCI-H226, 10^–5 M; read-out: GI (%)
Source text: as §1

EKVX = format: cell-based, human; conditions: Homo sapiens, 10^–5 M, read-out: GI (%)
Source text: as §1

For `O=C1C(Nc2ccc(I)cc2)=CC(c2ccc(O)c(O)c2)N1c1ccc(I)cc1` (stereo not drawn) [3h], the inhibition at 10 µM (MDA-MB-435) was 73%, the inhibition at 10 µM (786-0) was 52% and the inhibition at 10 µM (A498) was 61%. It also gave an inhibition at 10 µM (LOX IMVI) of 57%, an inhibition at 10 µM (MCF7) of 91% and an inhibition at 10 µM (HCC-2998) of 98%. For the same compound, the inhibition at 10 µM (SF-539) was 72%, the inhibition at 10 µM (MDA-MB-231/ATCC) was 42% and the inhibition at 10 µM (SN12C) was 100%. The inhibition at 10 µM (HS 578T) was 63%, the inhibition at 10 µM (K-562) was 89% and the inhibition at 10 µM (CCRF-CEM) was 100%. For the same compound, the inhibition at 10 µM (NCI-H322M) was 34%, the inhibition at 10 µM (UACC-257) was 68% and the inhibition at 10 µM (A549/ATCC) was 73%. The inhibition at 10 µM (SK-OV-3) was 64%, the inhibition at 10 µM (SNB-75) was 86% and the inhibition at 10 µM (CAKI-1) was 44%. The inhibition at 10 µM (NCI-H23) was 73%, the inhibition at 10 µM (DU-145) was 40% and the inhibition at 10 µM (OVCAR-4) was 100%. It also gave an inhibition at 10 µM (T-47D) of 65%, an inhibition at 10 µM (HCT-15) of 84% and an inhibition at 10 µM (HCT-116) of 96%. For the same compound, the inhibition at 10 µM (SNB-19) was 69%, the inhibition at 10 µM (OVCAR-5) was 22% and the inhibition at 10 µM (SK-MEL-2) was 100%. The inhibition at 10 µM (M14) was 99%, the inhibition at 10 µM (SW-620) was 100% and the inhibition at 10 µM (RPMI-8226) was 100%. It also gave an inhibition at 10 µM (NCI-H522) of 82%, an inhibition at 10 µM (IGROV1) of 26% and an inhibition at 10 µM (HL-60(TB)) of 100%. It also gave an inhibition at 10 µM (SK-MEL-28) of 75%, an inhibition at 10 µM (MOLT-4) of 100% and an inhibition at 10 µM (UACC-62) of 62%. It also gave an inhibition at 10 µM (NCI-H226) of 35% and an inhibition at 10 µM (EKVX) of 22%.
In the case of `O=C1C(Nc2ccc(I)cc2)=CC(c2ccc(Cl)cc2)N1c1ccc(I)cc1` (stereo not drawn) [3c], the inhibition at 10 µM (MDA-MB-435) is reported as 0%, the inhibition at 10 µM (786-0) is reported as 18% and the inhibition at 10 µM (A498) is reported as 19%. It also gave an inhibition at 10 µM (LOX IMVI) of 11%, an inhibition at 10 µM (MCF7) of 47% and an inhibition at 10 µM (HCC-2998) of 0%. For the same compound, the inhibition at 10 µM (SF-539) was 11%, the inhibition at 10 µM (MDA-MB-231/ATCC) was 5% and the inhibition at 10 µM (SN12C) was 25%. The inhibition at 10 µM (HS 578T) was 55%, the inhibition at 10 µM (K-562) was 10% and the inhibition at 10 µM (CCRF-CEM) was 15%. The inhibition at 10 µM (NCI-H322M) was 0%, the inhibition at 10 µM (UACC-257) was 23% and the inhibition at 10 µM (A549/ATCC) was 4%. The inhibition at 10 µM (SK-OV-3) was 13%, the inhibition at 10 µM (SNB-75) was 12% and the inhibition at 10 µM (CAKI-1) was 19%. For the same compound, the inhibition at 10 µM (NCI-H23) was 13%, the inhibition at 10 µM (DU-145) was 10% and the inhibition at 10 µM (OVCAR-4) was 34%. For the same compound, the inhibition at 10 µM (T-47D) was 48%, the inhibition at 10 µM (HCT-15) was 13% and the inhibition at 10 µM (HCT-116) was 25%. For the same compound, the inhibition at 10 µM (SNB-19) was 7%, the inhibition at 10 µM (OVCAR-5) was 0% and the inhibition at 10 µM (SK-MEL-2) was 43%. It also gave an inhibition at 10 µM (M14) of 0%, an inhibition at 10 µM (SW-620) of 12% and an inhibition at 10 µM (RPMI-8226) of 30%. For the same compound, the inhibition at 10 µM (NCI-H522) was 24%, the inhibition at 10 µM (IGROV1) was 16% and the inhibition at 10 µM (HL-60(TB)) was 0%. It also gave an inhibition at 10 µM (SK-MEL-28) of 12%, an inhibition at 10 µM (MOLT-4) of 29% and an inhibition at 10 µM (UACC-62) of 5%. It also gave an inhibition at 10 µM (NCI-H226) of 62% and an inhibition at 10 µM (EKVX) of 37%.
`O=C1C(Nc2ccc(I)cc2)=CC(c2ccccc2)N1c1ccc(I)cc1` (stereo not drawn) [3a] gave an inhibition at 10 µM (MDA-MB-435) of 0%, an inhibition at 10 µM (786-0) of 17% and an inhibition at 10 µM (A498) of 16%. For the same compound, the inhibition at 10 µM (LOX IMVI) was 18%, the inhibition at 10 µM (MCF7) was 44% and the inhibition at 10 µM (HCC-2998) was 0%. For the same compound, the inhibition at 10 µM (SF-539) was 12%, the inhibition at 10 µM (MDA-MB-231/ATCC) was 0% and the inhibition at 10 µM (SN12C) was 23%. The inhibition at 10 µM (HS 578T) was 71%, the inhibition at 10 µM (K-562) was 0% and the inhibition at 10 µM (CCRF-CEM) was 4%. The inhibition at 10 µM (NCI-H322M) was 17%, the inhibition at 10 µM (UACC-257) was 13% and the inhibition at 10 µM (A549/ATCC) was 5%. For the same compound, the inhibition at 10 µM (SK-OV-3) was 8%, the inhibition at 10 µM (SNB-75) was 15% and the inhibition at 10 µM (CAKI-1) was 3%. For the same compound, the inhibition at 10 µM (NCI-H23) was 6%, the inhibition at 10 µM (DU-145) was 0% and the inhibition at 10 µM (OVCAR-4) was 20%. The inhibition at 10 µM (T-47D) was 34%, the inhibition at 10 µM (HCT-15) was 19% and the inhibition at 10 µM (HCT-116) was 14%. The inhibition at 10 µM (SNB-19) was 8%, the inhibition at 10 µM (OVCAR-5) was 0% and the inhibition at 10 µM (SK-MEL-2) was 26%. For the same compound, the inhibition at 10 µM (M14) was 0%, the inhibition at 10 µM (SW-620) was 0% and the inhibition at 10 µM (RPMI-8226) was 100%. It also gave an inhibition at 10 µM (NCI-H522) of 50%, an inhibition at 10 µM (IGROV1) of 16% and an inhibition at 10 µM (HL-60(TB)) of 0%. It also gave an inhibition at 10 µM (SK-MEL-28) of 2%, an inhibition at 10 µM (MOLT-4) of 2% and an inhibition at 10 µM (UACC-62) of 0%. The inhibition at 10 µM (NCI-H226) was 4% and the inhibition at 10 µM (EKVX) was 37%.

Reference: publication PMC12736255, “Reinvestigating Pyrrol-2-One-Based Compounds: From Antimicrobial Agents to Promising Antitumor Candidates” (Pharmaceuticals, 2025)
